Laboratory results taken from publication doi:10.1101/2021.04.08.439011v1 (biorxiv, 2021).

Legend:
Details in all cases: 1 µM; binder
[1] = molecular target: PCTK3 (Homo sapiens, UniProt Q07002)
[2] = molecular target: PRKD1 (Homo sapiens, UniProt Q15139)
[3] = molecular target: GRK7 (Homo sapiens, UniProt Q8WTQ7)
[4] = molecular target: PIP5K1A (Homo sapiens, UniProt Q99755)
[5] = molecular target: PIK3CA (Homo sapiens, UniProt P42336)
[6] = molecular target: MLK1 (Homo sapiens, UniProt P80192)
[7] = molecular target: PIK3CB (Homo sapiens, UniProt P42338)
[8] = molecular target: MYLK3 (Homo sapiens, UniProt Q32MK0)
MYLK3, sequence (Q32MK0 whole entry): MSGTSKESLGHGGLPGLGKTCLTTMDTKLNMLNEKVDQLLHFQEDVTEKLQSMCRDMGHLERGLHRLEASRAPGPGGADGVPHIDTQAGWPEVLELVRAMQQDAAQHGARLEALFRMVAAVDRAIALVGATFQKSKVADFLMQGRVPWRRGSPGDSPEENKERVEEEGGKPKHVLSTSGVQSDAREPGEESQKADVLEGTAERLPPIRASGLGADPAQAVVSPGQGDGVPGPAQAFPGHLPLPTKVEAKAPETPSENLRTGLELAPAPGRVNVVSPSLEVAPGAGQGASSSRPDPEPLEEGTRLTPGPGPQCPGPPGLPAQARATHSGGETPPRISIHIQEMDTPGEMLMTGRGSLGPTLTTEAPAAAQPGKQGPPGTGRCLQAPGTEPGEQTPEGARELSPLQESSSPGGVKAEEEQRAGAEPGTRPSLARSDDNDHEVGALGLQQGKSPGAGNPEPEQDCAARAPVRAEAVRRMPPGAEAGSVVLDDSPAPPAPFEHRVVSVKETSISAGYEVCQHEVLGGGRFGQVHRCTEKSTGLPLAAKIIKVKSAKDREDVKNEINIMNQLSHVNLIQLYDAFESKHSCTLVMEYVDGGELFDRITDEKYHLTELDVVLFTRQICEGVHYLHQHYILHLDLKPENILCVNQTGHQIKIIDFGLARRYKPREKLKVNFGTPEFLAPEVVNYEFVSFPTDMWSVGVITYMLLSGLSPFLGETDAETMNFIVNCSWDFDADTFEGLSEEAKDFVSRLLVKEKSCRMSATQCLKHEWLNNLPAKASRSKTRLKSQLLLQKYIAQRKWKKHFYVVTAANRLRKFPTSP

[9] = molecular target: PNCK (Homo sapiens, UniProt Q6P2M8)
[10] = molecular target: IRAK1 (Homo sapiens, UniProt P51617)
[11] = molecular target: LATS1 (Homo sapiens, UniProt O95835)
[12] = molecular target: TNIK (Homo sapiens, UniProt Q9UKE5)
TNIK, sequence (Q9UKE5 whole entry): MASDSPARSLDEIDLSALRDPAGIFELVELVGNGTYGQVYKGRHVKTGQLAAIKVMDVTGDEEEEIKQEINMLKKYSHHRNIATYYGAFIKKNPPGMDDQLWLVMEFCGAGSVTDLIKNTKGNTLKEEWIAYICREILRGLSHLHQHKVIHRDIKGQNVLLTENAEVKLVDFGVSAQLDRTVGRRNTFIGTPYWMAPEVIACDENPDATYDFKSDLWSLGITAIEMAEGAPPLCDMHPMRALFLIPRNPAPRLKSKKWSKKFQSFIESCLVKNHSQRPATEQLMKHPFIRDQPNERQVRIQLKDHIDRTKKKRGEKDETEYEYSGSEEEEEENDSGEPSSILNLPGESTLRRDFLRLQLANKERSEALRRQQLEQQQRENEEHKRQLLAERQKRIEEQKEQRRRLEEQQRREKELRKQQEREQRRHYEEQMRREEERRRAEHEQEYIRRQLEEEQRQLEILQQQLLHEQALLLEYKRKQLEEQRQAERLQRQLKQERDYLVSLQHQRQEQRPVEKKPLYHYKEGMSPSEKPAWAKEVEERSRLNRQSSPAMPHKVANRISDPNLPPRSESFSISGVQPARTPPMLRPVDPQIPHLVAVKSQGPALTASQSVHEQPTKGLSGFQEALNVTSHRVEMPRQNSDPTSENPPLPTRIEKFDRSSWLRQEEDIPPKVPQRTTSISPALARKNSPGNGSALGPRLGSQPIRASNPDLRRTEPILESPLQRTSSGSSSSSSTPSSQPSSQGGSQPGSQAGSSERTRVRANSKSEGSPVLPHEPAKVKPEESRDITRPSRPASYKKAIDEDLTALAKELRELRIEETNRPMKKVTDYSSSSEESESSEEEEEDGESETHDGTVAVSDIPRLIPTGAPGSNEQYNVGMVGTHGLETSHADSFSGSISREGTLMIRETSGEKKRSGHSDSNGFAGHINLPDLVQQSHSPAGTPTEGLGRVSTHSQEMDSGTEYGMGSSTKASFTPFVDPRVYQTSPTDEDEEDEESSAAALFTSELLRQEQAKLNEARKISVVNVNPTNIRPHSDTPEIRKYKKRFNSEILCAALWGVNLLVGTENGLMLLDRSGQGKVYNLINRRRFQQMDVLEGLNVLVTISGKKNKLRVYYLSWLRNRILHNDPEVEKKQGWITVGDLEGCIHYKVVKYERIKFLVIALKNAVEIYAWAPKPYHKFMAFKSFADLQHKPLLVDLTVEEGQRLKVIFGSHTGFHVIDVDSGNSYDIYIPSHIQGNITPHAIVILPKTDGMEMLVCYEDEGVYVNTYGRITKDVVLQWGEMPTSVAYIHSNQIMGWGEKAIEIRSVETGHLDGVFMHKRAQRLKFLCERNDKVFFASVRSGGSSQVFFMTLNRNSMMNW

[13] = molecular target: PDGFRB (Homo sapiens, UniProt P09619)
PDGFRB, sequence (P09619 whole entry): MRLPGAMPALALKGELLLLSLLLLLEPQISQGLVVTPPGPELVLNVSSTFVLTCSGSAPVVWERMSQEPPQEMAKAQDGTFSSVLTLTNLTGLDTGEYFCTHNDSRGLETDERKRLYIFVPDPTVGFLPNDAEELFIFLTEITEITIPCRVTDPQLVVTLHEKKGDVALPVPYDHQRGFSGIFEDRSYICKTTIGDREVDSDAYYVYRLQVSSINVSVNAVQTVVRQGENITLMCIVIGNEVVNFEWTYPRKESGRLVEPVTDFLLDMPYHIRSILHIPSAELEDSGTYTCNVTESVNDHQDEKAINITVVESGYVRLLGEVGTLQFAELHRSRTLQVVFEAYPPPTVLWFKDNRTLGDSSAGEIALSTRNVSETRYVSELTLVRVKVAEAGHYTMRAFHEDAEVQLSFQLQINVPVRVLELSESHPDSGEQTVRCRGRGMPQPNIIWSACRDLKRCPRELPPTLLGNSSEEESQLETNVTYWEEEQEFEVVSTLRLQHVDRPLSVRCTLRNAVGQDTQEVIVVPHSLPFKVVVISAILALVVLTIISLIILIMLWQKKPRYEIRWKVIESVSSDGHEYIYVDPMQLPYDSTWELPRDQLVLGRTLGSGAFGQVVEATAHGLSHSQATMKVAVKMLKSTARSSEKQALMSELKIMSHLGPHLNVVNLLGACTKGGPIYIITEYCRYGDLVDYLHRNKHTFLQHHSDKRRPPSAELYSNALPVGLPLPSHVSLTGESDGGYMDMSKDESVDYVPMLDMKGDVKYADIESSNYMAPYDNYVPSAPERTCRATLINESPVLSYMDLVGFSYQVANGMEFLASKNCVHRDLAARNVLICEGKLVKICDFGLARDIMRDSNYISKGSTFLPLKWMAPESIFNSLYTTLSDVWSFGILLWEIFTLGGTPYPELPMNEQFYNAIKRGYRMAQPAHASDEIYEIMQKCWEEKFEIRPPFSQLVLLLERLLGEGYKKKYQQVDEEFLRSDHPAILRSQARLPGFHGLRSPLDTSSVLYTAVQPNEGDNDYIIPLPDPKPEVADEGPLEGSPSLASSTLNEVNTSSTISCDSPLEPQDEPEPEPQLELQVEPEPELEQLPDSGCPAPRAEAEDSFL

[14] = molecular target: MAP3K15 (Homo sapiens, UniProt Q6ZN16)
[15] = molecular target: DAPK2 (Homo sapiens, UniProt Q9UIK4)
[16] = molecular target: AKT3 (Homo sapiens, UniProt Q9Y243)
[17] = molecular target: CDK8 (Homo sapiens, UniProt P49336)
CDK8, sequence (P49336 whole entry): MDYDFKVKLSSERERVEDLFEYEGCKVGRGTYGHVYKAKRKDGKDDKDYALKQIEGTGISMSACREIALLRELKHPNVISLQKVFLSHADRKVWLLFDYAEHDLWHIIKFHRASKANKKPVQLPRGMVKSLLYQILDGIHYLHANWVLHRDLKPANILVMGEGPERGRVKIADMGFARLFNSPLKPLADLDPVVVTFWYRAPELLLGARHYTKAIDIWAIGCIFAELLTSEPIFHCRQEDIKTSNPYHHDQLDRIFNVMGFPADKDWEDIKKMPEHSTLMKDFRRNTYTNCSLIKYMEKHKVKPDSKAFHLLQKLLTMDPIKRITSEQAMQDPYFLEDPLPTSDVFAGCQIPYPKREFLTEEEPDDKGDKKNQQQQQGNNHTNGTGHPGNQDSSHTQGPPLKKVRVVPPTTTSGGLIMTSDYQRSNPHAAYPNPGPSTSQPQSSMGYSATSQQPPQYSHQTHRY

[18] = molecular target: CLK4 (Homo sapiens, UniProt Q9HAZ1)
[19] = molecular target: PIP4K2B (Homo sapiens, UniProt P78356)
PIP4K2B, sequence (P78356 whole entry): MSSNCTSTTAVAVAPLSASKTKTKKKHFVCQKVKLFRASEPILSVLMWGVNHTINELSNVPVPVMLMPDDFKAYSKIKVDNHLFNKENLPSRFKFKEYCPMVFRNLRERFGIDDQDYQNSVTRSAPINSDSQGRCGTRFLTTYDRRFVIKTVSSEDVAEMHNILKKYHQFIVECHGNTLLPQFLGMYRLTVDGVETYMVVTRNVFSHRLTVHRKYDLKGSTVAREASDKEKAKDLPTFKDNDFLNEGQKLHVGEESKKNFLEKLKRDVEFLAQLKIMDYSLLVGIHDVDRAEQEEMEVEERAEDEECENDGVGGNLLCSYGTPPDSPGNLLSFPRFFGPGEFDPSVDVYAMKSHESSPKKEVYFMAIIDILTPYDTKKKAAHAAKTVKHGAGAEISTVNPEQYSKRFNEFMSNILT

[20] = molecular target: CSNK1G3 (Homo sapiens, UniProt Q9Y6M4)
[21] = molecular target: ERK2 (Homo sapiens, UniProt P28482)
ERK2, sequence (P28482 whole entry): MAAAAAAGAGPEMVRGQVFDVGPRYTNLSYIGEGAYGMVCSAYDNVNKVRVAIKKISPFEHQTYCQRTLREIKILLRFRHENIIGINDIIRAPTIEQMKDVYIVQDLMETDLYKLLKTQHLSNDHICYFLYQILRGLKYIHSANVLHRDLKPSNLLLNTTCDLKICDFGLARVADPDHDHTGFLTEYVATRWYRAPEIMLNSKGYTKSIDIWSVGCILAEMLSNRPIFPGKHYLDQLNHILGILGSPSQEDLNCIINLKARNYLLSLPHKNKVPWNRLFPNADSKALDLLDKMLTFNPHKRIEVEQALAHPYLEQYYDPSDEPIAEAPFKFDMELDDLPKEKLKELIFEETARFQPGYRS

[22] = molecular target: MAPKAPK2 (Homo sapiens, UniProt P49137)
[23] = molecular target: ACVR1B (Homo sapiens, UniProt P36896)
[24] = molecular target: BRSK2 (Homo sapiens, UniProt Q8IWQ3)
[25] = molecular target: YSK1 (Homo sapiens, UniProt O00506)
[26] = molecular target: CHEK2 (Homo sapiens, UniProt O96017)
[27] = molecular target: TRKC (Homo sapiens, UniProt Q16288)
[28] = molecular target: FLT3(D835Y) (Homo sapiens, UniProt P36888, D835Y)
[29] = molecular target: ALK(C1156Y) (Homo sapiens, UniProt Q9UM73, C1156Y)
[30] = molecular target: ULK2 (Homo sapiens, UniProt Q8IYT8)

PCTK3, sequence (Q07002 whole entry): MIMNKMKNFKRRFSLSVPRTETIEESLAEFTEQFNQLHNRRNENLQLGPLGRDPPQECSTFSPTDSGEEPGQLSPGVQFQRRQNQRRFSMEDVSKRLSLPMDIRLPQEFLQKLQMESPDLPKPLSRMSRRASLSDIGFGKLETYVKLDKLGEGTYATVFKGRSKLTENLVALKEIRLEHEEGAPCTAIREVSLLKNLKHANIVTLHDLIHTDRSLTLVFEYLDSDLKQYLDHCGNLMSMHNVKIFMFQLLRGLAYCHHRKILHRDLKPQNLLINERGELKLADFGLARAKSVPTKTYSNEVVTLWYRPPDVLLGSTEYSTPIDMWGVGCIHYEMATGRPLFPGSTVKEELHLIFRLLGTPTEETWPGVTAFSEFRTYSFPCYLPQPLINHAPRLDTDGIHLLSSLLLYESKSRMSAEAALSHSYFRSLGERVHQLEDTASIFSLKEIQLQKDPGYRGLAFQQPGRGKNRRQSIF

SMILES: CNc1ncc2cc(-c3ccc(-c4cccc(C)n4)cc3Cl)c(=O)n(C[C@H]3OC[C@H](N)CO3)c2n1 [compound 6, G-5555]
- Percent Control [1]: 100%
- Percent Control [2]: 17%
- Percent Control [3]: 89%
- Percent Control [4]: 67%
- Percent Control [5]: 100%
- Percent Control [6]: 96%
- Percent Control [7]: 97%
- Percent Control [8]: 100%
- Percent Control [9]: 30%
- Percent Control [10]: 49%
- Percent Control [11]: 41%
- Percent Control [12]: 51%
- Percent Control [13]: 84%
- Percent Control [14]: 48%
- Percent Control [15]: 100%
- Percent Control [16]: 48%
- Percent Control [17]: 100%
- Percent Control [18]: 100%
- Percent Control [19]: 87%
- Percent Control [20]: 100%
- Percent Control [21]: 86%
- Percent Control [22]: 100%
- Percent Control [23]: 96%
- Percent Control [24]: 100%
- Percent Control [25]: 36%
- Percent Control [26]: 100%
- Percent Control [27]: 96%
- Percent Control [28]: 81%
- Percent Control [29]: 100%
- Percent Control [30]: 100%
